# Patent publication US12410160B2 (Gilead Sciences, Inc., priority 2021, dated 2025)
# Read-outs that look alike come from different tables or passages of the source.
# Assays:
# human KHK-C = human KHK-C (Homo sapiens (Human), UniProt P50053); test: KHK Biochemical Assay (IC50), ADP-Glo, KHK-C; conditions: average of at least two separate assays
# Outline: (§1)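 ADP-Glo luminescence measured ADP made over a 4 h room-temperature reaction of ATP plus fructose, started after 30 min compound–enzyme pre-incubation. Buffer: 50 mM Hepes pH 7.4, 140 mM KCl, 5 mM MgCl2, 0.01% Triton-X. Enzyme was His-tagged, BL21 (DE3)-expressed, Ni-NTA-purified; compounds in 1:3 DMSO dilution series.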
# human KHK-A = human KHK-A (Homo sapiens (Human), UniProt P50053); test: KHK Biochemical Assay (IC50), ADP-Glo, KHK-A; conditions: average of at least two separate assays
# Sequence of human KHK-A (P50053 other isoform, or with tags, fused parts or gaps): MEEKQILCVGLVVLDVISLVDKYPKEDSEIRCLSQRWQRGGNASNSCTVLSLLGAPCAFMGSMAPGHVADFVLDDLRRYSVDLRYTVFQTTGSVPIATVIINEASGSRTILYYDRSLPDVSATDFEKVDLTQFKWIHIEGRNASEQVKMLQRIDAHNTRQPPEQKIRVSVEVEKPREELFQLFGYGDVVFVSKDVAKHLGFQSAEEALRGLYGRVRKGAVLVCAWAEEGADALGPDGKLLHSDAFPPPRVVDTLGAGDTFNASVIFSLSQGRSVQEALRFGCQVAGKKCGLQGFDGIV
# Outline: as §1
# HepG2 cells = test: F1P Cell-Based Assay (EC50), 13C6-fructose-1-phosphate in HepG2 cells (cell culture medium or 50% human plasma)
# [1] = HepG2 cells, 50% human plasma, read-out: F1P 50% HP EC50
# [2] = read-out: F1P 10% FBS EC50, HepG2 cells, cell culture medium (10% FBS)
# [3] = Homo sapiens, HepG2, HepG2 cells, 50% human plasma, read-out: F1P 50% HP EC50
# [4] = Homo sapiens, HepG2, read-out: F1P 10% FBS EC50, HepG2 cells, cell culture medium (10% FBS)
# Sequence of human KHK-C (P50053 whole entry): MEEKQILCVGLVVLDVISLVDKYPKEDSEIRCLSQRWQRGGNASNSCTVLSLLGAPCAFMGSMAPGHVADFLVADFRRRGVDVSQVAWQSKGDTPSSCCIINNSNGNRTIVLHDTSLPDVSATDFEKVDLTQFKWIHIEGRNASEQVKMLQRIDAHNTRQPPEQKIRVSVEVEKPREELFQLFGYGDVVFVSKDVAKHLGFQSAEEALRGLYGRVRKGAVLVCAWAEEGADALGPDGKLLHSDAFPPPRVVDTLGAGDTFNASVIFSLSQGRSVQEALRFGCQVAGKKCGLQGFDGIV
SMILES,IC50 (human KHK-C),IC50 (human KHK-A),EC50 (HepG2 cells; [1]),EC50 (HepG2 cells; [2]),EC50 (HepG2 cells; [3]),EC50 (HepG2 cells; [4]),IC50 (human KHK-C; ADP-Glo),IC50 (human KHK-A; ADP-Glo)
"C[C@H]1[C@H](O)CN1c1nc(-c2cc(F)c3c(c2)OC[C@@H]3NS(C)(=O)=O)c2c(n1)C(F)(F)CC2 (single isomer, unassigned) [Example 813]",,,,,0.0784 µM,0.0252 µM,0.0025 µM,0.0347 µM
"C[C@H]1[C@H](O)CN1c1nc(-c2cc(F)c3c(c2)CCC3NS(C)(=O)=O)c2c(n1)C(F)(F)CC2 (stereo partly drawn) [Example 525, N-(5-(7,7-difluoro-2-((2S,3R)-3-hydroxy-2-methylazetidin-1-yl)-6,7-dihydro-5H-cyclopenta[d]pyrimidin-4-yl)-7-fluoro-2,3-dihydro-1H-inden-1-yl)methanesulfonamide]",0.0018 µM,0.0298 µM,,,0.0866 µM,0.0325 µM,,
"CS(=O)(=O)N[C@H]1COc2cc(-c3nc(N4CC[C@@H]4C(F)F)nc4c3CCC4(F)F)ccc21 [Example 545, N—((R)-6-(2-((R)-2-(difluoromethyl)azetidin-1-yl)-7,7-difluoro-6,7-dihydro-5H-cyclopenta[d]pyrimidin-4-yl)-2,3-dihydrobenzofuran-3-yl)methanesulfonamide]",0.001 µM,0.004 µM,,,0.0247 µM,0.0024 µM,,
"CC(=O)NC1COc2cc(-c3nc(N4CC[C@@H]4C)nc4c3CCC4(F)F)ccc21 (stereo partly drawn) [Example 767, N-[6-[7,7-difluoro-2-[(2S)-2-methylazetidin-1-yl]-5,6-dihydrocyclopenta[d]pyrimidin-4-yl]-2,3-dihydrobenzofuran-3-yl]acetamide]",0.0048 µM,,,,0.0979 µM,0.0209 µM,,
"CS(=O)(=O)CC(N)c1ccc(-c2nc(N3CC[C@@H]3CF)nc3c2CCC3(F)F)cc1 (stereo partly drawn) [Example 780, 1-(4-(7,7-difluoro-2-((R)-2-(fluoromethyl)azetidin-1-yl)-6,7-dihydro-5H-cyclopenta[d]pyrimidin-4-yl)phenyl)-2-(methylsulfonyl)ethan-1-amine]",0.0048 µM,,,,0.035 µM,0.0228 µM,,
"C[C@H]1[C@H](O)CN1c1nc([C@H]2CC(NS(C)(=O)=O)c3ccccc3O2)c2c(n1)C(F)(F)CC2 (stereo partly drawn) [Example 786, N—((R)-(7,7-difluoro-2-((2S,3R)-3-hydroxy-2-methylazetidin-1-yl)-6,7-dihydro-5H-cyclopenta[d]pyrimidin-4-yl)chroman-4-yl)methanesulfonamide]",0.0061 µM,,0.0976 µM,0.058 µM,,,,
"N#CCC1CCN1c1nc(-c2ccc3c(c2)S(=O)(=O)CCNC3)c2c(n1)C(F)(F)CC2 (stereo not shown) [Example 791, 2-(1-(4-(1,1-dioxido-2,3,4,5-tetrahydrobenzo[f][1,4]thiazepin-8-yl)-7,7-difluoro-6,7-dihydro-5H-cyclopenta[d]pyrimidin-2-yl)azetidin-2-yl)acetonitrile]",0.0805 µM,,,,> 0.5 µM,0.316 µM,,
"CS(=O)(=O)N[C@H]1COc2cc(-c3nc(N4CC(F)(F)C4CO)nc4c3CCC4(F)F)ccc21 (stereo partly drawn) [Example 792, N-((3R)-6-(2-(3,3-difluoro-2-(hydroxymethyl)azetidin-1-yl)-7,7-difluoro-6,7-dihydro-5H-cyclopenta[d]pyrimidin-4-yl)-2,3-dihydrobenzofuran-3-yl)methanesulfonamide]",0.0022 µM,,,,0.14 µM,0.0577 µM,,
CC(=O)NC1COc2cc(-c3nc(N4C[C@@H](O)[C@@H]4C)nc4c3CCC4(F)F)cc(F)c21 (stereo partly shown) [Example 809],,,,,0.179 µM,0.11 µM,0.0248 µM,
"COC(=O)NC1COc2cc(-c3nc(N4C[C@@H](O)[C@@H]4C)nc4c3CCC4(F)F)cc(F)c21 (stereo partly drawn) [Example 811, methyl (6-(7,7-difluoro-2-((2S,3R)-3-hydroxy-2-methylazetidin-1-yl)-6,7-dihydro-5H-cyclopenta[d]pyrimidin-4-yl)-4-fluoro-2,3-dihydrobenzofuran-3-yl)carbamate]",,,,,0.343 µM,0.127 µM,0.0052 µM,
"C[C@H]1[C@H](O)CN1c1nc(-c2cc(F)c3c(c2)OCC3NS(C)(=O)=O)c2c(n1)C(F)(F)CC2 (stereo partly drawn) [Example 817, N-(6-(7,7-difluoro-2-((2S,3R)-3-hydroxy-2-methylazetidin-1-yl)-6,7-dihydro-5H-cyclopenta[d]pyrimidin-4-yl)-4-fluoro-2,3-dihydrobenzofuran-3-yl)methanesulfonamide]",,,,,0.0671 µM,0.0397 µM,0.0059 µM,
"C[C@H]1CCN1c1nc(-c2ccc3c(c2)CCNC3C(F)F)c2c(n1)C(F)(F)CC2 (stereo partly drawn) [Example 836, 6-(7,7-difluoro-2-((S)-2-methylazetidin-1-yl)-6,7-dihydro-5H-cyclopenta[d]pyrimidin-4-yl)-1-(difluoromethyl)-1,2,3,4-tetrahydroisoquinoline]",,,,,0.159 µM,0.0169 µM,0.0058 µM,

# Next, values leading:
IC50 (human KHK-C),IC50 (human KHK-A),EC50 (HepG2 cells; [1]),EC50 (HepG2 cells; [2]),EC50 (HepG2 cells; [3]),EC50 (HepG2 cells; [4]),IC50 (human KHK-C; ADP-Glo),IC50 (human KHK-A; ADP-Glo),SMILES
0.001 µM,0.0004 µM,0.0089 µM,0.002 µM,,,,,"COc1ccc(-c2nc(N3C[C@@H](O)[C@@H]3C)nc3c2CCC3(F)F)cc1[S@@](=N)(=O)C1CC1 (single isomer, unassigned) [Example 539]"
0.0011 µM,0.007 µM,,,0.0275 µM,0.0149 µM,,,"C[C@H]1[C@H](O)CN1c1nc(-c2ccc3c(c2)OCC[C@@H]3NS(C)(=O)=O)c2c(n1)C(F)(F)CC2 (single isomer, unassigned) [Example 787]"
0.0025 µM,0.006 µM,0.0765 µM,0.0186 µM,,,,,"C[C@H]1[C@H](F)CN1c1nc(-c2ccc([C@H](N)CS(C)(=O)=O)cc2)c2c(n1)C(F)(F)CC2 (single isomer, unassigned) [Example 788]"
0.0025 µM,0.0067 µM,,,0.0225 µM,0.0107 µM,,,"C[C@H]1[C@@H](F)CN1c1nc(-c2ccc(C3(N)COC3)cc2)c2c(n1)C(F)(F)CC2 (stereo in doubt) [Example 469, 3-(4-(7,7-difluoro-2-((28,38)-3-fluoro-2-methylazetidin-1-yl)-6,7-dihydro-5H-cyclopenta[d]pyrimidin-4-yl)phenyl)oxetan-3-amine]"
0.0002 µM,0.0017 µM,,,0.0083 µM,0.006 µM,,,"C[C@H]1[C@H](O)CN1c1nc(-c2ccc3c(c2)CC[C@]32NC(=O)NC2=O)c2c(n1)C(F)(F)CC2 [Example 486, (S)-5′-(7,7-difluoro-2-((2S,3R)-3-hydroxy-2-methylazetidin-1-yl)-6,7-dihydro-5H-cyclopenta[d]pyrimidin-4-yl)-2′,3′-dihydrospiro[imidazolidine-4,1′-indene]-2,5-dione]"
0.0057 µM,,,,0.155 µM,0.0443 µM,,,"CNC1(c2ccc(-c3nc(N4C[C@@H](F)[C@@H]4C)nc4c3CCC4(F)F)cc2)CS(=O)(=O)C1 [Example 770, 3-(4-(7,7-difluoro-2-((2S,3R)-3-fluoro-2-methylazetidin-1-yl)-6,7-dihydro-5H-cyclopenta[d]pyrimidin-4-yl)phenyl)-3-(methylamino)thietane 1,1-dioxide]"
0.001 µM,,,,0.0338 µM,0.0105 µM,,,C[C@H]1[C@H](F)CN1c1nc(-c2ccc(C3(N)CS(=O)(=O)C3)cc2)c2c(n1)C(F)(F)CC2 [Example 772]
0.0021 µM,,,,,0.0118 µM,,,"C[C@H]1CCN1c1nc(-c2ccc(C(N)CS(C)(=O)=O)cc2)c2c(n1)C(F)(F)CC2 (stereo partly drawn) [Example 774, 1-(4-(7,7-difluoro-2-((S)-2-methylazetidin-1-yl)-6,7-dihydro-5H-cyclopenta[d]pyrimidin-4-yl)phenyl)-2-(methylsulfonyl)ethan-1-amine]"
0.0063 µM,,,,0.13 µM,0.135 µM,,,"NC1(c2ccc(-c3nc(N4CC(F)(F)C4CO)nc4c3CCC4(F)F)cc2)CS(=O)(=O)C1 (stereo not shown) [Example 782, 3-amino-3-(4-(2-(3,3-difluoro-2-(hydroxymethyl)azetidin-1-yl)-7,7-difluoro-6,7-dihydro-5H-cyclopenta[d]pyrimidin-4-yl)phenyl)thietane 1,1-dioxide]"
0.0007 µM,,,,0.0237 µM,0.0152 µM,,,C[C@H]1[C@@H](F)CN1c1nc(-c2ccc(C3(N)CS(=O)(=O)C3)cc2)c2c(n1)C(F)(F)CC2 [Example 785]
0.0142 µM,,,,0.104 µM,0.029 µM,,,"C[C@H]1CCN1c1nc(-c2cccc(C3(N)CS(=O)(=O)C3)c2)c2c(n1)C(F)(F)CC2 [Example 790, (S)-3-amino-3-(3-(7,7-difluoro-2-(2-methylazetidin-1-yl)-6,7-dihydro-5H-cyclopenta[d]pyrimidin-4-yl)phenyl)thietane 1,1-dioxide]"
,,,,0.0755 µM,0.0556 µM,0.0048 µM,,C[C@H]1[C@H](O)CN1c1nc(-c2ccc(C3(N)CCS(=O)(=O)C3)cc2)c2c(n1)C(F)(F)CC2 (stereo partly shown) [Example 793]
,,,,0.0994 µM,0.0352 µM,0.0157 µM,,"C[C@H]1[C@H](O)CN1c1nc(-c2ccc3c(c2)C(F)(F)CNC3)c2c(n1)C(F)(F)CC2 [Example 807, (2S,3R)-1-[4-(4,4-difluoro-2,3-dihydro-1H-isoquinolin-6-yl)-7,7-difluoro-5,6-dihydrocyclopenta[d]pyrimidin-2-yl]-2-methyl-azetidin-3-ol]"
,,,,> 0.5 µM,0.206 µM,0.0349 µM,,"C[C@H]1[C@H](O)CN1c1nc(-c2ccc3c(c2)CCC3(C)NS(C)(=O)=O)c2c(n1)C(F)(F)CC2 (stereo partly drawn) [Example 810, N-[5-[7,7-difluoro-2-[(2S,3R)-3-hydroxy-2-methyl-azetidin-1-yl]-5,6-dihydrocyclopenta[d]pyrimidin-4-yl]-1-methyl-indan-1-yl]methanesulfonamide]"
